Source: patent US5175183A, “Lipoxygenase inhibiting compounds” (Abbott Laboratories, priority 1991, dated 1992)

Legend:
5-lipoxygenase = target: T1, 5-lipoxygenase (Rattus norvegicus, UniProt P12527); experiment: In Vitro 5-lipoxygenase Inhibitory Activity (20,000×g supernatant from homogenized RBL-1 cells); assay type: biochemical; details: read-out: IC50 (concentration of compound producing 50% enzyme inhibition)
T1 construct: 20,000×g supernatant from homogenized RBL-1 cells; endogenous in cells; host or cells: RBL-1 cells (20,000×g supernatant of homogenate)
T1 sequence (P12527 1-673): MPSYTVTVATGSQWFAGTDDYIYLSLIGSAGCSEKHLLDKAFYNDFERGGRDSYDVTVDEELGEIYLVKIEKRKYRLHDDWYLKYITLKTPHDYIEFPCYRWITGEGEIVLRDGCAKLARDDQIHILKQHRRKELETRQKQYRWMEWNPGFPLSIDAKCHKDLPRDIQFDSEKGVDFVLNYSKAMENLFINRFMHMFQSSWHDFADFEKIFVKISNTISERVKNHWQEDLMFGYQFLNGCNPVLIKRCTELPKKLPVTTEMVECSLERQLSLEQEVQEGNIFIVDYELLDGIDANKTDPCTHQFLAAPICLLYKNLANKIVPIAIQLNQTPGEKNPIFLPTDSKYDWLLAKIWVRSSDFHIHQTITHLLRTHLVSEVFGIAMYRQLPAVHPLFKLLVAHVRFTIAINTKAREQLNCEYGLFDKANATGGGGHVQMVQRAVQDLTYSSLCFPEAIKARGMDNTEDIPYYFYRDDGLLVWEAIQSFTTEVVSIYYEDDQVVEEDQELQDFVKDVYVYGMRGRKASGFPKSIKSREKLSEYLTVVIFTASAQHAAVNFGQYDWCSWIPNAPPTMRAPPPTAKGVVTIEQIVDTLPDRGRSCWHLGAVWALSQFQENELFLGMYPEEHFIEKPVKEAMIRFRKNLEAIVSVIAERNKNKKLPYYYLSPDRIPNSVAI
Description: The compounds of this invention are potent inhibitors of 5-lipoxygenase. Their activity was determined using the 20,000×g supernatant from homogenized RBL-1 cells in a similar manner as that described by Dyer and coworkers (Dyer, R. D.; Haviv, F.; Hanel, A. M.; Bornemier, D. A.; Carter, G. W. Fed. Proc., Fed. Am. Soc. Exp. Biol. 1984, 43, 1462A). IC50 values (concentration of compound producing 50% enzyme inhibition) were calculated by linear regression analysius of percentage inhibition versus log inhibitor concentration plots.

Leukotriene Biosynthesis = experiment: In Vivo Inhibition of Leukotriene Biosynthesis (rat peritoneal anaphylaxis model); details: oral gavage 200 μmol/kg one hour prior to antigen challenge, peritoneal fluid leukotrienes 15 minutes after challenge, vs mean of control group
Description: Inhibition of the biosynthesis of leukotrienes in vivo after oral administration of compound was determined using a rat peritoneal anaphylaxis model. In this model rats were injected intraperitoneally (ip) with rabbit antibody to bovine serum albumin (BSA) and three hours later injected ip with BSA to induce an antigen-antibody response. Rats were sacrificed 15 minutes after this challenge and the peritoneal fluids were collected and analyzed for leukotriene levels. Test compound was administered by oral gavage one hour prior to the antigen challenge. Percent inhibition values were determined by comparing the treatment group to the mean of the control group.

Row | Compound | IC50 (5-lipoxygenase) | Percent Inhibition With 200 μmol/kg oral dose (Leukotriene Biosynthesis)
1 | CCCCOc1ccc(C(C)NC(=O)NO)cc1 (stereo not shown) [Example 3, N'-hydroxy-N-[1-(4-butoxyphenyl)ethyl]urea] | 3.8 µM | 
2 | O=C(NO)N[C@@H]1C[C@H]1c1ccccc1 (relative stereo) [Example 11, N'-hydroxy-N-1-(trans-2-phenylcyclopropyl)urea] | 28 µM | 
3 | O=C(NCc1ccsc1)N(O)CCO [Example 12, N'-hydroxy-N'-(2-hydroxyethyl)-N-[(thien-3-yl)-methyl]urea] | 13 µM | 79%
4 | Cc1cc(C(C)NC(=O)NO)c(C)s1 (stereo not shown) [Example 9, N'-hydroxy-N-[1-(2,5-dimethylthien-3-yl)ethyl]urea] | 8.4 µM | 
5 | N'-hydroxy-N'methoxy-N-[(1-naphth-2-yl)ethyl]urea [Example 5] | 27 µM | 
6 | CC(NC(=O)NO)c1cc2ccccc2o1 (stereo not shown) [Example 7, N'-hydroxy-N-[(1-benzofuran-2-yl)ethyl]urea] | 12.7 µM | 

More lines, main results first:

Row | IC50 (5-lipoxygenase) | Compound | Percent Inhibition With 200 μmol/kg oral dose (Leukotriene Biosynthesis)
7 | 1.2 µM | CC(NC(=O)NO)c1ccc(OCc2ccccc2)cc1 (stereo not shown) [Example 1, N'-hydroxy-N-[1-(phenylmethoxyphenyl)ethyl]urea] | 
8 | 0.5 µM | Cc1cc(C(C)NC(=O)N(C)O)c(C)s1 (stereo not shown) [Example 13, N'-hydroxy-N'-methyl-N-[1-(2,5-dimethylthien 3-yl)ethyl]urea] | 49%
9 | 0.3 µM | CC(NC(=O)N(C)O)c1ccc(OCc2ccccc2)cc1 (stereo not shown) [Example 2, N'-hydroxy-N'-methyl-N-[1-(4-phenylmethoxyphenyl)ethyl]urea] | 86%
10 | 3.6 µM | CN(O)C(=O)NCc1cccs1 [Example 6, N'-hydroxy-N'-methyl-N-[(thien-2-yl)methyl]urea] | 67%
11 | 4.6 µM | CC(NC(=O)NO)c1ccc2ccccc2c1 (stereo not shown) [Example 4, N'-hydroxy-N-[(1-naphth-2-yl)ethyl]urea] | 
12 | 0.27 µM | CC(NC(=O)N(C)O)c1cc2ccccc2o1 (stereo not shown) [Example 10, N'-hydroxy-N'-methyl-N-[(1-benzofur-2-yl)-ethyl]urea] | 50%
13 | 4 µM | CN(O)C(=O)NCc1ccsc1 [Example 8, N'-hydroxy-N'-methyl-N-[(thienyl-3-yl)methyl]urea] | 92%
